Where “and” joins values, the source holds several entries; their conditions need not be identical. Identical values can stand only once.
Legend:
Assay type in all cases: cell-based, human
HF-P4 cells = assay: MTT cytotoxicity assay, HF-P4; settings: 48 h; for Cell viability %: repeats; for IC50: Homo sapiens, MTT
Procedure: (§1) The effects of the tested compounds 1–6 on HF-P4, U-118 MG, H1299, BT-20, and Caov-3 cell lines were evaluated by the MTT assay during 48 h treatment (Table 2 and Tables S2–S31). In all tested compounds, we recognized a difference in cytotoxicity between healthy cells (HF-P4) and cancer cell lines (BT-20, Caov-3, and H-1299). […] In the case of ovarian cancer, the authors discovered oncogenic and poor prognosis roles of TET1 in epithelial ovarian carcinoma (EOC). TET1 is believed to demethylate the epigenome and activate numerous oncogenic pathways in EOC. The aforementioned study presents a new mechanism where TET1 contributes to tumor development through collaboration with CK2α [21]. The overexpression of the TET1 protein was also found in triple negative breast cancer and was associated with an activation of PI3K/mTOR pathway and decreased overall survival.
(§2) A human dermal fibroblast cell line was used for intracellular localization and cytotoxicity assay (MTT). Human fibroblast cells HF-P4 (human fibroblasts—patient 4) are normal dermal fibroblasts, which were obtained from the residual skin of a healthy patient who underwent plastic surgery (with informed consent of the patient). HF-P4 cell lines were obtained from the Department of Plastic Surgery, Third Faculty of Medicine, Charles University and University Hospital Královské Vinohrady, Prague, Czech Republic, as described by Szabo et al., 2011, and Dvořánková et al., 2019 [88, 89], and have been processed in accordance with the relevant local ethics committee and the Declaration of Helsinki protection of patients’ rights and benefits with written and signed informed consent of each patient. Cells were cultivated under standard conditions in Dulbecco’s modified Eagle’s medium (ATCC, Manassas, VA, USA), supplemented with 10% FBS and streptomycin (100 μg/mL) at 37 °C at a 5% CO2 atmosphere.
(§3) For the cytotoxicity assay, we used the following cell lines: human glioblastoma cell line U118-MG, human mammary gland/breast cell line BT-20, human ovary adenocarcinoma cell line Caov-3, and non-small-cell lung carcinoma H-1299. As previously mentioned, these cell lines contain a high level of the TET1 protein, which corresponds to a lower overall survival. In addition to these cell cultures, we used the human dermal fibroblast cell line HF-P4 as a healthy control. Determination of cytotoxicity was performed using the MTT [3-(4,5-dimethylthiazol-2-yl)-2,5-diphenyltetrazolium bromide] colorimetric assay. Viable cells from each cell line were cultured in 96-well plates (VWR, Stříbrná Skalice, Czech Republic) at a density of 1.0 × 10^5 cells per well and allowed to grow for 24 h in 200 μL of recommended medium. After a 1-day incubation, the medium was replaced with solutions of compounds 1–6 at concentration ranges of 0.1–20 μM. Each concentration was measured four times within one test, and the entire test was repeated three times. Tested compounds 1–6 were dissolved in DMSO and then diluted with corresponding medium to a final volume of 200 μL (maximum 1% DMSO). After 48 h exposure, cells were treated with 175 μL of MTT solution (P-LAB, Prague, Czech Republic) for 2 h. In the next step, MTT solution was removed, and 125 μL of DMSO (Penta, Prague, Czech Republic) was added to solubilize dark crystals of formazan formed in intact cells, and absorbance was measured at 570 nm by the enzyme-linked immunoabsorbent assay reader Infinite® 200 PRO (Tecan, Männedorf, Switzerland). The final DMSO concentration was smaller than 1% (v/v). The absorbance of untreated cells was considered 100%, and IC50 values were calculated by the GraphPad Prism 8 software. As a parameter for cytotoxicity, we used a concentration that inhibits 50% of cell growth (IC50).

[1] = MTT cytotoxicity assay, HF-P4; settings: human, HF-P4 normal human dermal fibroblasts, repeats, read-out: Cell viability %; for viability at 48 h, 0.5 µM: HF-P4, 500 nM; for viability at 48 h, 0.75 µM: HF-P4, 750 nM; for viability at 48 h, 1 µM: HF-P4, 1 uM; for viability at 48 h, 5 µM: HF-P4, 5 uM; for viability at 48 h, 7.5 µM: HF-P4, 7.5 uM; for viability at 48 h, 10 µM: HF-P4, 10 uM; for viability at 48 h, 15 µM: HF-P4, 15 uM; for viability at 48 h, 20 µM: HF-P4, 20 uM
Procedure: as §1, §2, §3

Caov-3 cells = assay: MTT cytotoxicity assay, Caov-3; settings: for Cell viability % / IC50: 48 h; for IC50: Caov-3, MTT
Procedure: as §1
The human ovary adenocarcinoma cell line (Caov-3), purchased from ATCC (Caov-3 (ATCC® HTB-75™), Manassas, VA, USA), was used for the cytotoxicity assay (MTT). Caov-3 cells were cultivated under standard conditions in Dulbecco’s modified Eagle’s medium (ATCC, Manassas, VA, USA) supplemented with 10% FBS and streptomycin (100 μg/mL) at 37 °C at a 5% CO2 atmosphere.
as §3

[2] = Caov-3, 100 nM, repeats, 0.1 µM
[3] = Caov-3, 500 nM, repeats, 0.5 µM
[4] = Caov-3, 750 nM, repeats, 0.75 µM
[5] = Caov-3, 2.5 uM, repeats, 2.5 µM
[6] = Caov-3, 7.5 uM, repeats, 7.5 µM
[7] = Homo sapiens, Caov-3, 48 h, Caov-3, 100 nM, repeats, read-out: Cell viability %
[8] = Homo sapiens, Caov-3, 48 h, Caov-3, 10 uM, repeats, read-out: Cell viability %
[9] = Homo sapiens, Caov-3, 48 h, Caov-3, 15 uM, repeats, read-out: Cell viability %
[10] = Homo sapiens, Caov-3, 48 h, Caov-3, 20 uM, repeats, read-out: Cell viability %

SMILES | Cell viability % (HF-P4 cells; HF-P4, 100 nM, 0.1 µM) | Cell viability % (HF-P4 cells; HF-P4, 500 nM, 0.5 µM) | Cell viability % (HF-P4 cells; HF-P4, 750 nM, 0.75 µM) | Cell viability % (HF-P4 cells; HF-P4, 1 uM, 1 µM) | Cell viability % (HF-P4 cells; HF-P4, 2.5 uM, 2.5 µM) | Cell viability % (HF-P4 cells; HF-P4, 5 uM, 5 µM) | Cell viability % (HF-P4 cells; HF-P4, 7.5 uM, 7.5 µM) | Cell viability % (HF-P4 cells; HF-P4, 10 uM, 10 µM) | Cell viability % (HF-P4 cells; HF-P4, 15 uM, 15 µM) | Cell viability % (HF-P4 cells; HF-P4, 20 uM, 20 µM) | IC50 (HF-P4 cells) [µM] | viability at 48 h, 0.5 µM [1] [%] | viability at 48 h, 0.75 µM [1] [%] | viability at 48 h, 1 µM [1] [%] | viability at 48 h, 5 µM [1] [%] | viability at 48 h, 7.5 µM [1] [%] | viability at 48 h, 10 µM [1] [%] | viability at 48 h, 15 µM [1] [%] | viability at 48 h, 20 µM [1] [%] | Cell viability % (Caov-3 cells; [2]) | further results
CCN(CC)c1ccc(/C=N/NC(=O)c2ccc(-c3cc4c(cc(-c5ccc(C(=O)N/N=C/c6ccc(N(CC)CC)cc6O)cc5)n4-c4ccc(C)cc4)n3-c3ccc(C)cc3)cc2)c(O)c1 [Compound 2] | 112.667% and 100.0956% and 124.6811% | 121.1654% and 117.1851% | 106.3799% and 108.6149% | 107.7419% and 92.48% | 91.9392% and 112.4492% and 91.41% | 91.3% and 88.77% | 87.79% and 98.14% | 82.92% and 77.13% | 82.13% and 69.58% | 51.8655% and 56.81% | > 20 | 120 | 100 | 107 | 104 | 84.4 | 83.1 | 69.4 | 60.3 | 105.779% and 93.87% | Cell viability % (Caov-3 cells; [3]): 78.8105% and 77.85%; Cell viability % (Caov-3 cells; [4]): 73.37% and 52.9% and 76.29%; Cell viability % (Caov-3 cells; Caov-3, 1 uM, repeats, 1 µM): 78.5% and 67.16% and 48.54%; Cell viability % (Caov-3 cells; [5]): 64.6096% and 82.47% and 61.81%; Cell viability % (Caov-3 cells; Caov-3, 5 uM, repeats, 5 µM): 59.21% and 86.03% and 70.4727%; Cell viability % (Caov-3 cells; [6]): 79.2% and 67.97%; Cell viability % (Caov-3 cells; Caov-3, 10 uM, repeats, 10 µM): 51.36% and 52.95%; Cell viability % (Caov-3 cells; Caov-3, 15 uM, repeats, 15 µM): 50.9752% and 42.33%; Cell viability % (Caov-3 cells; Caov-3, 20 uM, repeats, 20 µM): 25.3% and 23.25%; viability at 0.1 µM (Caov-3 cells; [7]): 95.3%; viability at 0.5 µM (Caov-3 cells; Homo sapiens, Caov-3, 48 h, Caov-3, 500 nM, repeats, read-out: Cell viability %): 76.2%; viability at 7.5 µM (Caov-3 cells; Homo sapiens, Caov-3, 48 h, Caov-3, 7.5 uM, repeats, read-out: Cell viability %): 73.3%; viability at 10 µM (Caov-3 cells; [8]): 52.1%; viability at 15 µM (Caov-3 cells; [9]): 42.8%; viability at 20 µM (Caov-3 cells; [10]): 28.4%; IC50 (Caov-3 cells; Homo sapiens): 13.3 µM
Cc1ccc(-n2c(-c3ccc(C(=O)N/N=C/c4cc(F)ccc4O)cc3)cc3c2cc(-c2ccc(C(=O)N/N=C/c4cc(F)ccc4O)cc2)n3-c2ccc(C)cc2)cc1 [Compound 3] | 96.12% and 98.08% | 100.1756% and 103.312% | 98.1566% and 91.216% | 97.13% and 98.88% | 92.78% and 93.78% | 90.27% and 73.392% | 83.18% and 77.088% | 74.37% and 72.544% | 66.4% and 65.2% | 62.78% and 65.696% | > 20 | 99.9 | 107 | 100 | 85.8 | 78.7 | 82.6 | 65.6 | 59 | 80.39% and 71.14% | viability at 48 h, 0.1 µM ([1]; HF-P4, 100 nM): 95.8%; viability at 48 h, 2.5 µM ([1]; HF-P4, 2.5 uM): 87.1%; Cell viability % (Caov-3 cells; [3]): 93.5% and 75.39% and 98.76%; Cell viability % (Caov-3 cells; [4]): 86.6015% and 81.49% and 112.9009%; Cell viability % (Caov-3 cells; Caov-3, 1 uM, repeats, 1 µM): 86.92% and 97.81%; Cell viability % (Caov-3 cells; [5]): 89.39% and 98.69%; Cell viability % (Caov-3 cells; Caov-3, 5 uM, repeats, 5 µM): 67.61% and 86.52%; Cell viability % (Caov-3 cells; [6]): 83.04% and 61.94% and 104.0087%; Cell viability % (Caov-3 cells; Caov-3, 10 uM, repeats, 10 µM): 67.37% and 81.12%; Cell viability % (Caov-3 cells; Caov-3, 15 uM, repeats, 15 µM): 57.51% and 62.97%; Cell viability % (Caov-3 cells; Caov-3, 20 uM, repeats, 20 µM): 34.98% and 37.9%; viability at 0.1 µM (Caov-3 cells; [7]): 84.4%; viability at 1 µM (Caov-3 cells; Homo sapiens, Caov-3, 48 h, Caov-3, 1 uM, repeats, read-out: Cell viability %): 89.4%; viability at 2.5 µM (Caov-3 cells; Homo sapiens, Caov-3, 48 h, Caov-3, 2.5 uM, repeats, read-out: Cell viability %): 85.3%; viability at 5 µM (Caov-3 cells; Homo sapiens, Caov-3, 48 h, Caov-3, 5 uM, repeats, read-out: Cell viability %): 70.6%; viability at 10 µM (Caov-3 cells; [8]): 65.4%; viability at 15 µM (Caov-3 cells; [9]): 59%; viability at 20 µM (Caov-3 cells; [10]): 35.5%; IC50 (Caov-3 cells; Homo sapiens): 17.8 µM
